Laboratory results from patent US8178349B2, “Homogeneous neural precursor cells” (Burnham Institute For Medical Research, priority 2005, dated 2012).

Columns and labels:
Type in all cases: cell-based, human
[1] = system: glutamate receptors of differentiated hES-NPCs cultures; experiment: Calcium imaging; details: 4-5 week old cultures; NMDA followed by glutamate, 37° C.
Method: Calcium Imaging. Measurement of intracellular free Ca2+ ([Ca2+]i) in differentiated HNSC cultures was performed using Fura-2-AM or Fluo-3-AM as described earlier (Tenneti et al., J Neurochem 71: 946-59, 1998) with the minor modification. Briefly, ES derived hNPC cells were washed twice with recording medium containing 150 mM NaCl, 3 mM KCl, 2 mM CaCl2, 5 mM glucose, 10 μM glycine, and 10 mM HEPES (pH 7.4) and incubated generally at 37° C. in recording medium containing 30 nM Pluronic F-127 and 5 μM Fluo-3 AM for 30 minor 10 μMFura-2-AM for 60 min (acetoxymethyl esters; Molecular Probes). Cultures were then washed three times with recording medium, followed by settlement at 37° C. for at least 30 min. Cells were invariably used within 1 hr after these procedures for observation. During the experiments, cells were kept in a perfusion chamber on the microscope stage at room temperature (Fluo-3) or 37° C. (Fura-2 experiments). Imaging was done using a Sutter DG-4 fast wavelength switcher coupled to a Zeiss Axiovert microscope with a 20×, 0.5 NA, objective. […] Changes in fluorescence intensity were calculated by dividing the measured fluorescence intensity (F; ratio of 340/380 nm for Fura-2) by the measured average baseline fluorescence intensity (F/F0) Excitation was achieved using standard FITC or Fura-2 filter sets (Chroma technologies).

[2] = system: NMDA-type glutamate receptors of differentiated hES-NPCs; experiment: Whole-cell patch-clamp recording of ligand-gated currents; details: for effect on glutamate-evoked currents: voltage clamp, holding potential −60 mV, after 2 to 2.5 weeks in culture, 100 μM D-APV
differentiated hES-NPCs = experiment: Whole-cell patch-clamp recording of GABA-evoked currents; details: 2.5 weeks in culture
[3] = system: Voltage-gated Na+ currents of differentiated hES-NPCs
hESCs = experiment: Spheroid bodies formation in suspension medium; details: addition to the suspension medium (2 mM)
Method: Spheroid bodies formation: the small clusters (10-100 cells) of hESCs were grown in polypropylene dishes (Ted Pella) in Suspension Medium (1:1 ratio of DMEM/F12:neurobasal medium with N2+B27 supplements, 20 ng/ml insulin 20 ng/ml bFGF, 20 ng/ml EGF and 2 mM N-acetyl cysteine (NAC)). The spheres were grown for 4-6 days, with a change in medium every alternate day.

CN[C@H](CC(=O)O)C(=O)O [NMDA, N-methyl-D-aspartate]
[Ca2+] response of fura-2-loaded cells [1]: Robust responses

N[C@@H](CCC(=O)O)C(=O)O [glutamate]
cells that manifest agonist-evoked currents ([2]; after 2 weeks in culture): approximately 30% | [Ca2+] response of fura-2-loaded cells [1]: Robust responses

NCCCC(=O)O [GABA, γ-aminobutyric acid]
cells with agonist-evoked currents (cells of cells recorded) (differentiated hES-NPCs): 4 of 29

N[C@H](CCCP(=O)(O)O)C(=O)O [D-APV, D-(−)-2 amino-5-phosphonovaleric acid]
effect on glutamate-evoked currents [2]: partially blocked | effect on glutamate-evoked currents ([2]; listed as APV): partially inhibited

NC1=N[C@H](O)[C@H]2[C@H]3O[C@]4(O)O[C@@H]([C@@H](O)[C@@]2(N1)[C@@H]4O)[C@]3(O)CO [TTX, tetrodotoxin]
effect on fast Na+ currents [3]: reversibly blocked

CC(=O)N[C@@H](CS)C(=O)O [NAC, N-acetyl cysteine]
morphology of spheroid bodies (hESCs): healthier morphology of spheroid bodies
